# Experimental data taken from PubChem BioAssay (NCI).
# Values joined by “and” are separate entries in the source; they are usually repeats but may differ in a detail not shown here. Equal entries are not always repeated.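 Method: 48-hour compound exposure of cells in 96-well plates, five concentrations, linear interpolation of endpoints. Here, GI50 denotes the concentration required for 50% inhibition of growth. TGI: total growth inhibition.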 Where a SMILES comes first, the peptide text is derived from it. The star is where a group is joined. Boc = CC(C)(C)OC(=O)*; tBu = CC(C)(C)*
# What was measured:
# Assay in all cases: NCI anticancer screen, dose series, 48 h
# [1] = test system: SNB-75 CNS
# [2] = test system: SNB-19 CNS
# [3] = test system: SK-OV-3 ovarian
# [4] = test system: RXF 393 renal
# [5] = test system: HT29 colon
# [6] = test system: SF-295 CNS
# [7] = test system: UACC-257 melanoma
# [8] = test system: TK-10 renal
# [9] = test system: HCC-2998 colon
# [10] = test system: HS 578T breast
Compound,TGI [1],TGI [2],TGI [3] [µM],TGI [4],TGI [5],TGI [6],TGI [7],TGI [8],TGI [9],TGI [10],GI50 [1] [µM],GI50 [2] [µM],GI50 [3] [µM],GI50 [4] [µM],GI50 [5] [µM],GI50 [6] [µM],GI50 [7] [µM],GI50 [8] [µM],GI50 [9] [µM],GI50 [10] [µM]
Cc1cc(NS(=O)(=O)c2ccc(NC(=O)c3ccc4nc5ccccc5c(Nc5ccc(S(=O)(=O)Nc6cc(C)on6)cc5)c4c3)cc2)no1,> 50 µM,> 50 µM,> 50,> 50 µM,> 50 µM,> 50 µM,> 50 µM,> 50 µM,> 50 µM,> 50 µM,,,,,,,,,,
CC(OC(C)(C)C)C(NC(=O)C(N)CCCCNC(=O)OC(C)(C)C)C(=O)NC(Cc1ccccc1)C(=O)O (stereo unspecified) (H-Lys(Boc)-Thr(tBu)-Phe-OH; configuration not given here),> 100 µM,> 100 µM,> 100,> 100 µM,> 100 µM,> 100 µM,> 100 µM,> 100 µM,> 100 µM,> 100 µM,,,,,,,,,,
CON(C)C(=O)C(C)NC(=O)OC(C)(C)C (stereo unspecified),> 100 µM,> 100 µM,> 100,> 100 µM,> 100 µM,> 100 µM,> 100 µM,> 100 µM,> 100 µM,> 100 µM,,,,,,,,,,
Clc1cccc2[nH]ncc12,> 100 µM,> 100 µM,> 100,> 100 µM,> 100 µM,> 100 µM,> 100 µM,> 100 µM,> 100 µM,> 100 µM,,,,,,,,,,
O=S(=O)(c1ccc2ccccc2c1)N1CCN(S(=O)(=O)c2ccc3ccccc3c2)CC1,60 µM,> 100 µM,> 100,> 100 µM,> 100 µM,> 100 µM,> 100 µM,> 100 µM,> 100 µM,> 100 µM,,,,,,,,,,
CC(=O)Nc1sccc1S(=O)(=O)c1ccc(Cl)cc1,> 100 µM,> 100 µM,> 100,> 100 µM,> 100 µM,> 100 µM,> 100 µM,> 100 µM,> 100 µM,> 100 µM,,,,,,,,,,
CC1=NNC(=O)[C@H]2[C@H]1CCC1[C@@H]2CC[C@]2(C)[C@@H](O)CC[C@@H]12 (stereo partly specified),> 100 µM,> 100 µM,> 100,> 100 µM,> 100 µM,> 100 µM,> 100 µM,> 100 µM,> 100 µM,> 100 µM,,,,,,,,,,
O=C(Nc1ccc(Cl)c(C(F)(F)F)c1)C(=O)c1c(O)c2ccccc2oc1=O,> 100 µM,> 100 µM,> 100,> 100 µM,> 100 µM,> 100 µM,> 100 µM,> 100 µM,> 100 µM,> 100 µM,,,,,,,,,,
NC(N)=N/N=C\c1c(-c2ccccc2)nc2sccn12,24.8 µM,27.3 µM,33.2,26.3 µM,28.6 µM,27.9 µM,26.3 µM,31.2 µM,16.8 µM,34.5 µM,,,,,,,,,,
COC1(c2ccccc2)NC(=S)NN=C1c1ccccc1 (stereo unspecified),97.5 µM,> 100 µM,78.4,> 100 µM,> 100 µM,99.3 µM,> 100 µM,> 100 µM,37.8 µM,> 100 µM,,,,,,,,,,
CC(C)(CC1(C)NC(=O)NC1=O)OCc1ccccc1 (stereo unspecified),> 100 µM,> 100 µM,> 100,> 100 µM,> 100 µM,> 100 µM,> 100 µM,> 100 µM,> 100 µM,> 100 µM,,,,,,,,,,
CCN(CC)C(=S)SSCCO,28 µM,> 100 µM,> 100,34.8 µM,30.8 µM,> 100 µM,48.6 µM,40.8 µM,43.3 µM,34.7 µM,14.8,95.4,73.9,19.4,17,33.5,19.1,24,18.9,16
CCOC(=O)C(C)(Cc1ccc(O)cn1)NC(=O)c1ccccc1 (stereo unspecified),> 100 µM,> 100 µM,> 100,> 100 µM,> 100 µM,> 100 µM,> 100 µM,> 100 µM,> 100 µM,> 100 µM,,,,,,,,,,
COc1cccc(Nc2nc(NS(=O)(=O)c3cc(C)c(Cl)cc3S)n[nH]2)c1,> 100 µM,> 100 µM,> 100,> 100 µM,> 100 µM,> 100 µM,> 100 µM,> 100 µM,> 100 µM,> 100 µM,,,,,,,,,,
O=C(O)Cc1ccc(Oc2nc3ccccc3nc2-c2ccccc2)cc1,> 100 µM,> 100 µM,> 100,98.2 µM,> 100 µM,> 100 µM,> 100 µM,> 100 µM,99.5 µM,> 100 µM,,,,,,,,,,
O=C1NC2=NN=C(c3ccc(Br)cc3)CN2NC12c1ccccc1-c1ccccc12,> 100 µM,> 100 µM,> 100,> 100 µM,> 100 µM,> 100 µM,> 100 µM,> 100 µM,> 100 µM,> 100 µM,,,,,,,,,,
COc1cccc(N2C(=O)C3CC(CC(C)(C)C)c4c([nH]c5ccccc45)C3C2=O)c1 (stereo unspecified),7.04 µM,> 10 µM,> 10,> 10 µM,> 10 µM,> 10 µM,> 10 µM,> 10 µM,> 10 µM,9.87 µM,,,,,,,,,,

Compound,TGI [1],TGI [2],TGI [3] [µM],TGI [4],TGI [5],TGI [6],TGI [7],TGI [8],TGI [9],TGI [10],GI50 [1] [µM],GI50 [2] [µM],GI50 [3] [µM],GI50 [4] [µM],GI50 [5] [µM],GI50 [6] [µM],GI50 [7] [µM],GI50 [8] [µM],GI50 [9] [µM],GI50 [10] [µM]
O=c1c2ccccc2n2cnc3ccc(NCCNCCO)c1c32,9.51 µM,22.6 µM,19.6,4.65 µM,6.84 µM,9.2 µM,13.2 µM,15.7 µM,11.3 µM,6.26 µM,,,,,,,,,,
C=C1C(=O)O[C@@H]2[C@H]1C[C@H](I)[C@@]1(C)CC[C@H](O1)[C@](C)(I)CCCC(C)[C@@H]2O (stereo partly specified),21.3 µM,30.5 µM,30.7,4.44 µM,4.61 µM,31.8 µM,20.1 µM,3.57 µM,25.2 µM,40.1 µM,,,,,,,,,,
C/C(=N\Nc1nc2ccccc2n1C)c1ccc2ccccc2n1,46.4 µM,> 100 µM,> 100,29.3 µM,18.3 µM,10.5 µM,> 47 µM,34 µM,0.9 µM,63.8 µM,,,,,,,,,,
C=C(Cl)C(Cl)(CBr)CCC(Br)C(C)(C)Cl (stereo unspecified),7.12 µM and 1.69 µM and 6.97 µM,5.54 µM and 4.55 µM and 10.1 µM,62.7,3.92 µM and 0.991 µM and 4.49 µM,2.19 µM and 1.94 µM and 2.1 µM,3.53 µM and 3.04 µM and 3.7 µM,6.07 µM and 3.81 µM and 14.1 µM,3.64 µM and 3.87 µM and 7.61 µM,6.35 µM and 2.97 µM and 8.14 µM,5.25 µM and 5.08 µM and 9.16 µM,,,,,,,,,,0.802
N#C[C@H](C(=O)c1ccccc1F)c1nc2ccccc2[nH]1,> 100 µM,> 100 µM,> 100,> 100 µM,> 100 µM,> 100 µM,> 100 µM,> 100 µM,> 100 µM,> 100 µM,,,,,,,,,,
Cn1c(SCc2c[nH]c3ccccc23)nnc1-c1ccc(Cl)cc1Cl,25.9 µM,61.7 µM,59.4,32.5 µM,35.5 µM,27.2 µM,56.1 µM,47.2 µM,26.1 µM,> 100 µM,,,,,,,,,,
CCCCCC(/C=C/[C@@H]1[C@@H](C(O)CCCCCC(=O)OC)C(=O)C[C@H]1O[Si](C)(C)C(C)(C)C)OCOCCOC (stereo partly specified),22.2 µM,29 µM,34,39.8 µM,18.8 µM,32.6 µM,21.9 µM,31.3 µM,> 57 µM,27.2 µM,,,,,,,,,,
CC(=O)O[C@H]1C[C@@H](OC(C)=O)[C@@](C)(O)[C@@H]2[C@@H](OC(C)=O)[C@@]3(O)[C@H](/C=C(/CCl)[C@H]4O[C@H]4[C@@H](OC(C)=O)[C@@]12C)OC(=O)[C@@H]3C,> 25 µM,> 25 µM,> 25,> 25 µM,> 25 µM,> 25 µM,> 25 µM,> 25 µM,> 25 µM,> 25 µM,,,,,,,,,,
OC1CSCCSCCCSCCSC1,> 100 µM,> 100 µM,> 100,> 100 µM,> 100 µM,> 100 µM,> 100 µM,> 100 µM,> 100 µM,> 100 µM,,,,,,,,,,
C=CCCCCCCCCC(=O)ON(Cc1ccc(O)c(OC)c1)C(=O)C(F)(F)F,> 100 µM,> 100 µM,> 100,> 100 µM,> 100 µM,> 100 µM,> 100 µM,> 100 µM,> 100 µM,> 100 µM,,,,,,,,,,
Cc1cc2c3c(c1)CCCN3CCC2,> 10 µM,> 10 µM,> 10,> 10 µM,> 10 µM,> 10 µM,> 10 µM,> 10 µM,> 10 µM,> 10 µM,,,,,,,,,,
CN(CCCNC(=O)c1c2ccc3ccccc3c2nn1C)CCCNC(=O)c1c2ccc3ccccc3c2nn1C,21.4 µM,28.6 µM,28.4,20 µM,6.93 µM,9.77 µM,3.57 µM,18.1 µM,3.44 µM,30.3 µM,,,,,,,,,,
Cn1c(=O)n2n(c1=O)C(S(=O)c1ccccc1)C2 (stereo unspecified),> 100 µM,> 100 µM,> 100,> 100 µM,> 100 µM,> 100 µM,> 100 µM,> 100 µM,> 100 µM,> 100 µM,,,,,,,,,,
C=CC1(O)CCCC=C1COCc1ccccc1 (stereo unspecified),> 100 µM,> 100 µM,> 100,> 100 µM,> 100 µM,> 100 µM,> 100 µM,> 100 µM,> 100 µM,> 100 µM,,,,,,,,,,
Nc1ncnc2c1N=C(c1ccccc1)CC(c1ccccc1)N2 (stereo unspecified),> 100 µM,> 100 µM,> 100,> 100 µM,> 100 µM,> 100 µM,> 100 µM,> 100 µM,> 100 µM,> 100 µM,,,,,,,,,,
Clc1ccc(Cn2cc(/C=N/n3cnnc3)c3ccccc32)cc1,68.5 µM,> 100 µM,> 100,46.8 µM,> 100 µM,> 100 µM,> 100 µM,28.7 µM,31.4 µM,> 100 µM,,,,,,,,,,
O=C(O)c1ccccc1CC(Cc1ccccc1)C(=O)O (stereo unspecified),> 100 µM,> 100 µM,> 100,> 100 µM,> 100 µM,> 100 µM,> 100 µM,> 100 µM,> 100 µM,> 100 µM,,,,,,,,,,
